PMC7922564, “Molecular Insights into an Antibiotic Enhancer Action of New Morpholine-Containing 5-Arylideneimidazolones in the Fight against MDR Bacteria” (International Journal of Molecular Sciences, 2021)
Like-named read-outs stand apart in the source and are kept apart here.

Legend:
[1] = test system: S. aureus MM-N072; experiment: MIC reduction assay (antibiotic adjuvant), S. aureus MM-N072; type: cell-based, Staphylococcus aureus
From the text: (§1) The adjuvant properties of compounds 14–16 in S. aureus clinical isolates were next tested in combination with oxacillin and the penicillinase-susceptible β-lactam antibiotic, ampicillin. The second β-lactam antibiotic was chosen based on its vulnerability to enzymatic hydrolysis, another important resistance mechanism in S. aureus against penicillin. Therefore, the results of the MIC reduction assay obtained on the activity of arylideneimidazolones combined with oxacillin and ampicillin, respectively, might provide further insights into the possible mechanism of action of the compounds. Complete results are presented in Supplementary (Tables S4 and S5), while condensed in Figure 6, in the case of desired activity noted. […] One possible explanation for the lack of adjuvant activity of compounds in some of the strains selected for this study might be that these strains express PBP2a only when induced by the antibiotic, while others, for which potentiating activity of compounds was observed, produce this protein in high levels straight away.
(§2) Determination of MIC values, i.e., intrinsic antibacterial activity, of products and antibiotics (oxacillin, ampicillin, vancomycin, ciprofloxacin, and erythromycin) in the presence and absence of compounds tested was conducted by the use of a standard 2-fold microdilution method in cation-adjusted Mueller Hinton broth following the Clinical and Laboratory Standards Institute (CLSI) guidelines. The MIC values were detected using an Infinite M200 pro Tecan microplate reader (Tecan® France, SA-Lyon, France). MIC determinations were conducted in 96-well microtiter plates and repeated 3–4 times.
(§3) Initially, MICs of a series of imidazolone derivatives were assessed against susceptible (reference) and MDR strains of staphylococci. Next, MIC values of the aforementioned antibiotics were determined in the absence and presence of imidazolone derivatives to assess the chemosensitizing effect of these compounds. […] 5-arylideneimidazolones and 5-arylidenethiazolones, which precipitated after addition to bacterial suspension in MH II medium, were tested at the highest concentrations at which precipitation was not observed. […] Antibacterial activity of compounds and antibiotics ampicillin, vancomycin, ciprofloxacin, and erythromycin was recorded as the lowest concentration of molecules able to inhibit bacterial growth after 18 h incubation at 37 °C. The incubation of bacterial strains exposed to oxacillin paired with compounds tested was conducted at 35 °C and extended to 24 h due to frequent occurrence of heterogeneity among MRSA strains. The results are presented as activity gain (A) parameter which was calculated as ratio of MIC of a certain antibiotic (MICAnt) to its MICAnt+Comp, observed in combination with a tested compound (7, 12–16, 19, or 20; Equation (1)). (1) A=(MICAnt/MICAnt+Comp)

[2] = test system: S. aureus MM-N072; experiment: MIC of compounds, S. aureus MM-N072; type: cell-based; conditions: Staphylococcus aureus; MM-N072 (MSSA)
Protocol: (§4) Compounds 14–16 were tested further for their adjuvant-like effect with a set of ten additional S. aureus isolates. Firstly, MIC values of the molecules were evaluated in two clinical MSSA isolates (MM-O058, MM-N072), seven MRSA (USA300 LAC, 5328, LG-N017, MM-O021, R45-CC45, R46-CC22, COL) and one VISA strain (Mu50). Detailed results are presented in the Supplementary section (Table S3).
as §2
as §3, with “The incubation of bacterial strains exposed to oxacillin paired with compounds tested was conducted at 35 °C and extended to 24 h due to frequent occurrence of heterogeneity among MRSA strains.” left out, “(1) A=(MICAnt/MICAnt+Comp)” left out

[3] = test system: S. aureus R45-CC45; experiment: MIC of compounds, S. aureus R45-CC45; type: cell-based; conditions: Staphylococcus aureus, read-out: MIC value of compounds
Protocol: as §4, §2
as §3, with “The incubation of bacterial strains exposed to oxacillin paired with compounds tested was conducted at 35 °C and extended to 24 h due to frequent occurrence of heterogeneity among MRSA strains.” left out, “(1) A=(MICAnt/MICAnt+Comp)” left out

[4] = test system: S. aureus LG-N017; experiment: MIC of compounds, S. aureus LG-N017; type: cell-based; conditions: Staphylococcus aureus; LG-N017 (MRSA)
Protocol: as §4, §2
as §3, with “The incubation of bacterial strains exposed to oxacillin paired with compounds tested was conducted at 35 °C and extended to 24 h due to frequent occurrence of heterogeneity among MRSA strains.” left out, “(1) A=(MICAnt/MICAnt+Comp)” left out

[5] = test system: K. aerogenes CM-64 (overexpression of AcrAB-TolC); experiment: MIC of compounds, K. aerogenes CM-64; type: cell-based; conditions: Klebsiella aerogenes, read-out: Minimal Inhibitory Concentration (MIC)
From the text: (§5) A subset of compounds, namely 7, 12–16, 19, 20, was also examined for the potential to increase the effectiveness of the antibiotics chloramphenicol, erythromycin, doxycycline, and the fluoroquinolone antibiotic norfloxacin, which all are substrates for AcrAB-TolC in K. aerogenes. In addition to strain Ea-289, the adjuvant-like effect of the compounds was investigated in strain CM-64, which also overexpresses the AcrAB-TolC efflux pump, although it has no changes in porin content, and in the Ea-289 derivatives, i.e., Ea-294 and Ea-308, which are devoid of AcrAB (Table S17, Supplementary).
as §2
(§6) MIC values of 5-arylideneimidazolone derivatives were determined following CLSI recommendations as in the methods described for S. aureus (Section 3.3.1).

[6] = test system: S. aureus COL; experiment: MIC reduction assay (antibiotic adjuvant), S. aureus COL; type: cell-based, Staphylococcus aureus; conditions: ampicillin
From the text: as §1, with “away. […]” for “away.”
(§7) Initially, MICs of a series of imidazolone derivatives were assessed against susceptible (reference) and MDR strains of staphylococci. Next, MIC values of the aforementioned antibiotics were determined in the absence and presence of imidazolone derivatives to assess the chemosensitizing effect of these compounds. […] Antibacterial activity of compounds and antibiotics ampicillin, vancomycin, ciprofloxacin, and erythromycin was recorded as the lowest concentration of molecules able to inhibit bacterial growth after 18 h incubation at 37 °C. […] The results are presented as activity gain (A) parameter which was calculated as ratio of MIC of a certain antibiotic (MICAnt) to its MICAnt+Comp, observed in combination with a tested compound (7, 12–16, 19, or 20; Equation (1)). […]

[7] = test system: K. aerogenes Ea-294, Ea-308 (devoid of AcrAB); experiment: MIC of compounds, K. aerogenes Ea-294, Ea-308; type: cell-based, Klebsiella aerogenes; conditions: ratio of compound MICs
[8] = test system: S. aureus COL; experiment: MIC of compounds, S. aureus COL; type: cell-based; conditions: Staphylococcus aureus; COL (MRSA)
Protocol: as §4, §2
as §7, with “compounds. […] 5-arylideneimidazolones and 5-arylidenethiazolones, which precipitated after addition to bacterial suspension in MH II medium, were tested at the highest concentrations at which precipitation was not observed.” for “compounds.”

[9] = test system: MRSA 19449; experiment: MIC determination (microdilution), MRSA 19449; type: cell-based, Staphylococcus aureus; conditions: Staphylococcus aureus, MRSA, no precipitation
Protocol: as §2, §3

[10] = test system: K. aerogenes Ea-289 (overexpression of AcrAB-TolC); experiment: MIC of compounds, K. aerogenes Ea-289; type: cell-based; conditions: Klebsiella aerogenes
Protocol: At first, MIC values of compounds were determined (Table S15, Supplementary). Next, their abilities to reduce MICs of the AcrAB-TolC substrates doxycycline (a tetracycline-class antibiotic) and erythromycin were studied (Table S16, Supplementary). […]
as §2, §6

[11] = test system: S. aureus MM-O021; experiment: MIC reduction assay (antibiotic adjuvant), S. aureus MM-O021; type: cell-based, Staphylococcus aureus
From the text: as §1, §2, §3

[12] = test system: S. aureus 5328; experiment: MIC of compounds, S. aureus 5328; type: cell-based; conditions: Staphylococcus aureus; 5328 (MRSA)
Protocol: as §4, §2
as §7, with “compounds. […] 5-arylideneimidazolones and 5-arylidenethiazolones, which precipitated after addition to bacterial suspension in MH II medium, were tested at the highest concentrations at which precipitation was not observed.” for “compounds.”

[13] = test system: S. aureus R46-CC22; experiment: MIC reduction assay (antibiotic adjuvant), S. aureus R46-CC22; type: cell-based, Staphylococcus aureus
From the text: as §1, §2, §3

[14] = test system: K. aerogenes Ea-294, Ea-308; experiment: MIC reduction assay (antibiotic adjuvant), K. aerogenes Ea-294, Ea-308; type: cell-based, Klebsiella aerogenes; conditions: doxycycline, chloramphenicol, norfloxacin, erythromycin;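 note: compound at no more than one quarter of its own MIC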
From the text: as §5, §3, §6

[15] = test system: S. aureus MM-O021; experiment: MIC of compounds, S. aureus MM-O021; type: cell-based; conditions: Staphylococcus aureus; MM-O021 (MRSA)
Protocol: as §4, §2
as §7, with “compounds. […] 5-arylideneimidazolones and 5-arylidenethiazolones, which precipitated after addition to bacterial suspension in MH II medium, were tested at the highest concentrations at which precipitation was not observed.” for “compounds.”

[16] = test system: S. aureus 5328; experiment: MIC reduction assay (antibiotic adjuvant), S. aureus 5328; type: cell-based, Staphylococcus aureus
From the text: as §1, §2, §3

[17] = test system: K. aerogenes Ea-294, Ea-308 (devoid of AcrAB); experiment: MIC of compounds, K. aerogenes Ea-294, Ea-308; type: cell-based; conditions: Klebsiella aerogenes, read-out: Minimal Inhibitory Concentration (MIC)
From the text: as §5, §2, §6

[18] = test system: K. aerogenes CM-64; experiment: MIC reduction assay (antibiotic adjuvant), K. aerogenes CM-64; type: cell-based, Klebsiella aerogenes; conditions: doxycycline, chloramphenicol, norfloxacin, erythromycin;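 note: compound at no more than one quarter of its own MIC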
From the text: as §5, §3, §6

[19] = read-out: MIC value/no precipitation
[20] = read-out: Minimal Inhibitory Concentration (MIC)
[21] = ampicillin, range over repetitions

| SMILES | A (activity gain) ([1]; ampicillin) | A (activity gain) ([1]; erythromycin) | MIC [2] [µM] | MIC [4] [µM] | MIC [5] [µM] | A (activity gain) [6] | more effective in strains Ea-294 and Ea-298 when compared to the parental strain Ea-289 [7] [fold] | MIC [8] [µM] | MIC [9] [µM] | MIC [10, 19] [µM] | MIC [10, 20] [µM] | A (activity gain) [11, 21] | A (activity gain) ([11]; erythromycin) | MIC [12] [µM] | A (activity gain) ([13]; ampicillin) | A (activity gain) ([13]; ciprofloxacin) | A (activity gain) [14] | MIC [15] [µM] | A (activity gain) ([16]; ampicillin) | MIC [17] [µM] | also measured |
| --- | --- | --- | --- | --- | --- | --- | --- | --- | --- | --- | --- | --- | --- | --- | --- | --- | --- | --- | --- | --- | --- |
| NC1=N/C(=C\c2ccc(-c3ccccc3)cc2)C(=O)N1CCCN1CCOCC1 [Compound 15] | 1 | 1 | 250 | 250 | > 2000 | 1 | ≥ 4 | 250 | 31.2 to 250 | > 250 | > 2000 | 8-16 | 1 | 250 | 2 | 1 | 1 | 250 to 500 | 2 | 125 | MIC ([3]; MRSA): 125 to 250 µM; A (AMP), gain of activity, arithmetic mean ([11]; ampicillin, arithmetic mean of 3-4 repetitions): 10.7; A (activity gain) ([16]; erythromycin, S. aureus 53284): 1; A (activity gain) [18]: 1 |
| NC1=N/C(=C\c2cccc(Oc3ccccc3)c2)C(=O)N1CCCN1CCOCC1 [Compound 16] | 1 | 1 | 250 | 250 | > 2000 | 1 | ≥ 4 | 250 | – | – | > 2000 | 1 | 1 | 250 | 1 | 1 | – | 250 | 1 | 500 | MIC ([3]; R45-CC45 (MRSA)): 250 µM; A (activity gain) ([16]; erythromycin, S. aureus 53284): 1 |
| NC1=N/C(=C\c2ccc3c(c2)Cc2ccccc2-3)C(=O)N1CCCN1CCOCC1 [Compound 19] | – | – | – | – | > 2000 | – | ≥ 4 | – | 31.2 to 250 | > 250 | > 2000 | – | – | – | – | – | 1 | – | – | 250 | A (activity gain) [18]: 1 |
| NC1=N/C(=C\c2ccc(-c3ccccc3)cc2)C(=O)N1CCN1CCOCC1 [Compound 14] | 1 | 1 | ≥ 500 | ≥ 500 | > 2000 | 1 | – | ≥ 500 | 31.2 to 250 | > 250 | > 2000 | 1 | 1 | ≥ 500 | 2 | 1 | 1 | ≥ 500 | 2 | 2000 | MIC ([3]; R45-CC45 (MRSA)): ≥ 500 µM; A (activity gain) ([16]; erythromycin, S. aureus 53284): 1; A (activity gain) [18]: 1 |
